Test system: TAK1
Experiment: Phosphorylated TAK1 (FACS) in monocytes or mDCs
Type: cell-based, human
Details: monocytes; 10 ng/ml TGF-β1 for 5-90 minutes

Substance: TGF-β1: soluble TGF-β1 used to treat monocytes
- phosphorylation of TAK1: induce phosphorylation of TAK1 as early as 15 minutes
